Laboratory results published in US11007269B2, “P53 degradation inducing molecule and pharmaceutical composition” (Tokyo University of Science Foundation, priority 2016, dated 2021).

Tested on: senescence-associated acidic β-galactosidase (SA-β-gal) inducing TIG3 cells
Experiment: FACS analysis of SA-β-gal in doxorubicin senescence-induced TIG3 cells (anti-aging action)
Format: cell-based, human
Details: 50 μM added after doxorubicin (150 nM), 48 hours
Procedure: In Example 5, an anti-aging action in a senescence-associated acidic β-galactosidase (SA-β-gal) inducing TIG3 cells (human embryonic fibroblast) in which TIBC-CANDDY_MLN had been added was evaluated by FACS analysis.
TIG3 cells as normal cells were seeded in a 24-well plate at a cell density of 8×10^4 cells/well, and then cultured under conditions of 37° C. and 5 vol % CO2 for 16 hours.
After 16 hours from cell seeding, doxorubicin was added to each well at 150 nM/well to induce cellular senescence. As a medium, a serum-free medium (37° C.) in which 1 mass % L-glutamine solution (Sigma-Aldrich) was added to D-MEM (high D-glucose, phenol red, sodium pyruvate (Wako Pure Chemical Industries, Ltd.)) was used. It is noted that the L-glutamine solution was added immediately before use. After the addition of doxorubicin, culture was performed under conditions of 37° C. and 5 vol % CO2 for 24 hours.
After 24 hours from induction of senescence, TIBC-CANDDY_MLN was added to TIG3 cells as follows. As a medium, a serum-free medium (37° C.) in which 1 mass % L-glutamine solution (Sigma-Aldrich) was added to D-MEM (high D-glucose, phenol red, sodium pyruvate (Wako Pure Chemical Industries, Ltd.)) was used. It is noted that the L-glutamine solution was added immediately before use. A DMSO solution containing TIBC-CANDDY_MLN was mixed with the medium so that the concentration of DMSO was 1 vol %, and added to each well at 500 μL/well, and cultured under conditions of 37° C. and 5 vol % CO2 for 48 hours. As a control, DMSO was used.
For quantification of SA-β-gal as a senescence marker, a commercially available kit (Cellular Senescence Detection Kit-SPiDER-βGal (DOJINDO LABORATORIES)) was used. […]
A BD FACSCanto™ II (BD Biosciences) was used for flow cytometry to detect SA-β-gal labeled with FITC. […] A histogram of the FITC strength was created by an analysis software FlowJo™ (TOMY Digital Biology Co., Ltd.), and the senescence suppressing action by TIBC-CANDDY_MLN was evaluated from a shift in the histogram.

**Q.** Which “cellular senescence suppressing action” value does the source give for CC(C)C[C@H](NC(=O)CNC(=O)c1cc(Cl)ccc1Cl)C(=O)NCCCCCCC(=O)Nc1ccc(C(=O)/C=C/c2ccc(I)cc2)cc1 [TIBC-CANDDY_MLN] here?
**A.** The value was “about 80%”.

**Q.** And the “shift to SA-β-gal (senescence marker) positive (FACS histogram)” value?
**A.** The value was “hardly observed”.
